Reference: the NIST ThermoML archive (doi:10.1016/j.jct.2005.10.007)

Experiment: mn = molality of the nth substance listed, in mol/kg
Conditions: 350 kPa, Liquid, Extra sensitive DSC

C[C@H](N)C(=O)O [(S)-2-aminopropanoic acid] + O
apparent molar heat capacity [J/K/mol]
Conditions	m1 = 0.0152	m1 = 0.0299	m1 = 0.05	m1 = 0.08	m1 = 0.1247	m1 = 0.2493	m1 = 0.5149	m1 = 1.002
278.15 K	107	137	101.3	106	107	113.3	122.6	118.5
283.15 K	119	148	113.2	117.9	118.8	124.8	133.2	128.7
288.15 K	131	156	123.3	127.8	128.9	134.4	142	137.2
293.15 K	143	163	131.5	136	137.4	142.4	149.5	144.3
298.15 K	152	170	138.2	142.8	144.2	149.1	155.6	150.2
303.15 K	158	174	143.9	148.7	150.3	154.9	160.8	155.5
308.15 K	163	178	148.9	153.7	155.4	159.8	165.3	159.8
313.15 K	169	182	153.6	158	159.9	164.1	169.3	163.8
318.15 K	172	185	157.3	161.6	163.9	167.7	172.6	167.1
323.15 K	175	188	160.9	164.9	167.3	170.9	175.5	170
328.15 K	178	190	163.7	167.7	170.3	173.6	178	172.5
333.15 K	181	192	166.4	170.2	173	176.1	180.3	174.8
